Test results as given in US5043332A, “Novel 11β-substituted -19-nor-steriods” (priority 1981, dated 1991).

Legend:
[1] = biological target: T1, Androgen receptor of prostate of rats (Rattus norvegicus, UniProt P15207); experiment: Androgen receptor binding (displacement of tritiated product P)
T1 construct: The prostates were removed, weighed and homogenized at 0° C; from tissue; host or cells: rat prostate, 105,000 g supernatant (castrated male Sprague-Dawley rats)
T1 sequence (P15207 1-902): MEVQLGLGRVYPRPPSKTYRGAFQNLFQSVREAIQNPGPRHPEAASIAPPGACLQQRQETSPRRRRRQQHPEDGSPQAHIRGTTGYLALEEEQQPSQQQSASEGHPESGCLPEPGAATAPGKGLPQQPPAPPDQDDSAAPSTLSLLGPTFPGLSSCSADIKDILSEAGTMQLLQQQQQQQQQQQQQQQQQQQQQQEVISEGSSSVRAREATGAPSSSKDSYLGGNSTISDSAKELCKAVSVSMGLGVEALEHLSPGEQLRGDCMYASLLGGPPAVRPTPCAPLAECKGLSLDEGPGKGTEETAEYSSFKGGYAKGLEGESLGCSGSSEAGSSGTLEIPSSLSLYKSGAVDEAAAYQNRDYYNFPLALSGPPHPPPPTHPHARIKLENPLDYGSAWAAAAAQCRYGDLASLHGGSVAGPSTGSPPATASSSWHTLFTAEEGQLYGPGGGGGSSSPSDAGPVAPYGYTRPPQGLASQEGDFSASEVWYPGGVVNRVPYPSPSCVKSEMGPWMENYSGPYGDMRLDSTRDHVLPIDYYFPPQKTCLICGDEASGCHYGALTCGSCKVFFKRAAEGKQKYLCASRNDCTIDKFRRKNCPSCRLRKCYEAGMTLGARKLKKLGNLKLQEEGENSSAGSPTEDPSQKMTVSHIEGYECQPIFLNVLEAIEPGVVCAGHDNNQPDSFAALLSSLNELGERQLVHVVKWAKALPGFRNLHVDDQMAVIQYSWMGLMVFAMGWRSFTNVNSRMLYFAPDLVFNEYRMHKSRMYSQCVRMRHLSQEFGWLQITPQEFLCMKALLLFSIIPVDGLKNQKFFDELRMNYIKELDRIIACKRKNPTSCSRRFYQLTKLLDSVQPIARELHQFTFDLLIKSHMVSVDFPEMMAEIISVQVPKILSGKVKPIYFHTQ
Procedure: B. Androgen receptor of prostate of rats
Male Sprague-Dawley EPOS rats weighing of 160 to 200 g were castrated and 24 hours later, the animals were killed. The prostates were removed, weighed and homogenized at 0° C. with a polytetrafluoroethylene-glass Potter with a buffered TS solution (Tris, 10 mM, 0.25M Saccharose, HCl-pH of 7.4) using 1 g of tissue per 5 ml of TS. The homogenate was then ultracentrifuged at 105,000 g for 60 […] (T) of product P or 17α-methyl-Δ^4,9,11 -estratriene-17β-ol-3-one in the presence of increasing concentration (0-1,000×10^-9 M) of either cold P, cold testosterone or the test compound. The concentration of tied tritiated (B) was measured for each incubate by the technique of adsorption on carbon-dextran.
(§1) The calculation of the relative affinity of […] (ARL) was identical for all of the above receptor tests. One traced the following two curves: the percentage of tied tritiated hormone B/T as a function of the logarithm of the cold hormone concentration and B/T as a function of the logarithm of the concentration of the cold test product. One determined the line of the equation. [formula]
(§2) The intersection of the I50 line and the curves permits one to determine the concentrations of the cold hormone of the reference (CH) and the cold test compound (CX) which inhibit by 50% the tieing of tritiated hormone with the receptor. The relative affinity of tieing (ARL) of the test product was determined by the equation: [formula]

[2] = biological target: T2, Gluocorticoid receptor of thymus of rats (Rattus norvegicus, UniProt P06536); experiment: Glucocorticoid receptor binding (displacement of tritiated dexamethasone); conditions: incubation 4 H at 0° C.
T2 construct: The thymus were removed and homogenized at 0° C; from tissue; host or cells: rat thymus, 105,000 g supernatant (adrenalectomized male Sprague-Dawley rats)
T2 sequence (P06536 1-795): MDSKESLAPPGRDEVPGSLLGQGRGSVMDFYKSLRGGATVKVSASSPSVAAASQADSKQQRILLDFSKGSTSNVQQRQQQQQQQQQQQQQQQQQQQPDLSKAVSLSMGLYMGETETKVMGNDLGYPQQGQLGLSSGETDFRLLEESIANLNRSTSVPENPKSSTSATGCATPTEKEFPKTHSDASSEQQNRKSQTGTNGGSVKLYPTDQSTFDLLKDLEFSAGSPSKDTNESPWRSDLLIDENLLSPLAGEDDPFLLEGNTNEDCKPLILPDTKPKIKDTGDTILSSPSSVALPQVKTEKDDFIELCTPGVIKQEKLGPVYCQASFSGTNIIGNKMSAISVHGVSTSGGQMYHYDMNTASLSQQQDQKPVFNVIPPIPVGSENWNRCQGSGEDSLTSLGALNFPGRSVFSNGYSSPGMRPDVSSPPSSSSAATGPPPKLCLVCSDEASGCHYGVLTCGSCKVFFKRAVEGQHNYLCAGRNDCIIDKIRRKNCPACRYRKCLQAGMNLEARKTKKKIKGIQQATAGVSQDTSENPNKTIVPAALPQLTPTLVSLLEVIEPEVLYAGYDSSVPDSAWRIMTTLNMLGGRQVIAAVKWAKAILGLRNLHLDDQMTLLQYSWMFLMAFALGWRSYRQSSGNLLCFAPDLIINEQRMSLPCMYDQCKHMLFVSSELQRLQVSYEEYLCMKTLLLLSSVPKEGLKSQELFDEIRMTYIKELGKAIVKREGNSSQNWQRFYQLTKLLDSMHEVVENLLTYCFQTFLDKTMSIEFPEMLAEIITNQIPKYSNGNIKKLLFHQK
Procedure: D. Gluocorticoid receptor of thymus of rats
Male Sprague-Dawley EPOS rats weighing 160 to 200 g were surrenalectomized and the animals were killed 4 to 8 days later. The thymus were removed and homogenized at 0° C. in a buffered TS solution of 10 mM, Tris, 0.25M of Saccharose, 2 mM of dithiothreitol HCl for a pH of 7.4 using a polytetrafluoroethylene-glass Potter at a rate of 1 g of tissue per 10 ml of TS. […] The concentration of tied tritiated dexamethasone (B) was measured for each incubate by the adsorption on carbon-dextran technique.
as §1, §2

[3] = biological target: T3, Estrogen receptor of uterus of mice (Mus musculus, UniProt P19785); experiment: Estrogen receptor binding (displacement of tritiated estradiol); conditions: for agonist or antagonistic activity to estrogens: concluded from receptor affinity
T3 construct: the uterus were removed and homogenized at 0° C; from tissue; host or cells: mouse uterus, 105,000 g supernatant (immature females 18 to 21 days old)
T3 sequence (P19785 1-599): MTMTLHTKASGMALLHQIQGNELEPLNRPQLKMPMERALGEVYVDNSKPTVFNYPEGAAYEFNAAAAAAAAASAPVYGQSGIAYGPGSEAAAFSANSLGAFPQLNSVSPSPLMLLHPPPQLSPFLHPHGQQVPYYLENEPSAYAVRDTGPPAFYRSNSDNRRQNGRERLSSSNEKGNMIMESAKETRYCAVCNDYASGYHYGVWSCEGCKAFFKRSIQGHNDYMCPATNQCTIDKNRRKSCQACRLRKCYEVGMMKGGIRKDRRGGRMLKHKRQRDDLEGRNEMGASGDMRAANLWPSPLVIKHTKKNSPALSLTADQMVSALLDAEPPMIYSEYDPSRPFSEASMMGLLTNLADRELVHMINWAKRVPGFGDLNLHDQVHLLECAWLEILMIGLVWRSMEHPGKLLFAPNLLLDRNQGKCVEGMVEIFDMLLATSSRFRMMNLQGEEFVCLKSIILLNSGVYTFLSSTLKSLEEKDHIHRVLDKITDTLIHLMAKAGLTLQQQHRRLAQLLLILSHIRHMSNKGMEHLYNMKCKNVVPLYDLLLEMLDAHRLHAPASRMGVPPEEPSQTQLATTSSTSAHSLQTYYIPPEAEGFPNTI
Procedure: E. Estrogen receptor of uterus of mice
Immature female mice 18 to 21 days old were killed and the uterus were removed and homogenized at 0° C. with a polytetrafluoroethylene-glass Potter in a buffered TS solution consisting of 10 mM, Tris, 0125M Saccharose, HCl for a pH of 7.4 at a rate of 1 g of tissue per 25 ml of TS. The homogenate was then ultracentrigued at 105,000 g for 90 minutes at 0° C. and aliquoits of the resulting […] were incubated at 0° C. for a time (t) with a constant concentration (T) of tritiated estradiol in the presence of increasing concentrations (0 to 1000×10^-9 M) of either cold estradiol or cold test compound. The concentration of tied tritiated estradiol (B) was measured for each incubate by the technique of adsorption on carbon-dextran.
as §1, §2

[4] = tested on: uterine endometrium; experiment: Progestomimetic activity, oral, change in uterine endometrium (McPhail); assay type: in vivo, immature female rabbits; conditions: progesterone 0.2 mg/kg subcutaneously
Procedure: (§3) IV. Progestomimetic and Anti-progestomimetic Activity
(§4) a) Groups of immature female rabbits weighing about 1 kg had administered to them subcutaneously from day 1 to day 5, 5 μg of estradiol. The product tested was afterward administered orally from day 8 to day 11 in a volume of 0.5 cm^3 of water containing 0.5% of carboxymethyl cellulose and 0.2% of Tween. On day 12, the rabbits were sacrificed, their uteruses were retained and fixed in Bouin's solution and histologically studied.
(§5) The changes in the uterine endometrium were noted according to the method of McPhail.

[5] = tested on: uterine endometrium; experiment: Anti-progestomimetic activity versus progesterone, oral, change in uterine endometrium (McPhail); assay type: in vivo, immature female rabbits; conditions: progesterone 0.2 mg/kg subcutaneously, alone
Procedure: as §3, §4, §5

[6] = tested on: uterine endometrium; experiment: Anti-progestomimetic activity versus progesterone, intrauterine, change in uterine endometrium (McPhail); assay type: in vivo, immature female rabbits; conditions: progesterone alone 10 μg/rabbit, method of McPhail
Procedure: Groups of three immature female rabbits weighing about 1 kg were topically treated on the dorsal skin with 25 μg of estradiol in 10 μl of ethanol on day 1. On day 4 the product to be tested dissolved in 0.1 ml, of sesame oil containing 5% benzyl alcohol was introduced into a part of the uterus isolated between two ligatures. On the sixth day the animals were sacrificed, their uteruses retained and fixed in Bouin's solution for histological examination. Changes in the uterine endometrium were noted after the method of McPhail.

SMILES	relative affinity of tieing (ARL), Androgen ([1]; incubation 1/2H at 0° C.)	relative affinity of tieing (ARL), Androgen ([1]; incubation 24 H at 0° C.)	relative affinity of tieing (ARL), Glucocorticoid [2]	agonist or antagonistic activity to estrogens [3]	relative affinity of tieing (ARL), Estrogen ([3]; incubation 2 H at 0° C.)	relative affinity of tieing (ARL), Estrogen ([3]; incubation 5 H (25° C.))	CHANGE IN THE ENDOMETRIUM [4] [McPHAIL UNTS]	CHANGE IN THE ENDOMETRIUM [5] [McPHAIL UNTS]	CHANGE IN THE ENDOMETRIUM [6]
CN(C)CCOc1ccc([C@H]2C[C@]3(C)[C@@H](O)CC[C@H]3[C@@H]3CCc4ccccc4[C@H]32)cc1 [Example 14, 11β-[4-(2-dimethylaminoethoxy)-phenyl]-Δ^1,3,5(10) -estratriene-17β-ol]	10,6	0,5	0,4	present an agonist or antagonistic activity to estrogens	4,1	1,4			
CC(=O)[C@H]1CC[C@H]2[C@@H]3CCC4=CC(=O)CC[C@]4(C)[C@H]3CC[C@]12C [Progesterone, progesterone, reference compound]							3.2	3.0	2.7
CN(C)CCOc1ccc([C@H]2C[C@]3(C)[C@@H](O)CC[C@H]3[C@@H]3CCc4cc(O)ccc4[C@H]32)cc1 [Example 13, 11β-[4-(2-dimethylaminoethoxy)-phenyl]-Δ^1,3,5(10) -estratriene-3,17β-diol]	5	6	3,9	present an agonist or antagonistic activity to estrogens	78	239			
CN(C)CCOc1ccc2c(c1)CC[C@@H]1[C@@H]2[C@@H](c2ccccc2)C[C@]2(C)[C@@H](O)CC[C@@H]12 [Example 15, 3-(2-dimethylamino-ethoxy)-11β-phenyl-Δ^1,3,5(10) -estratriene-17β-ol]	1,3	0,2	2		0,1	0,1			
